Tests used:
Bile acid receptor = target: T1, Bile acid receptor (Homo sapiens, UniProt Q96RI1); test: Activation of human farnesoid X receptor in FRET assay
T1 sequence (Q96RI1 whole entry): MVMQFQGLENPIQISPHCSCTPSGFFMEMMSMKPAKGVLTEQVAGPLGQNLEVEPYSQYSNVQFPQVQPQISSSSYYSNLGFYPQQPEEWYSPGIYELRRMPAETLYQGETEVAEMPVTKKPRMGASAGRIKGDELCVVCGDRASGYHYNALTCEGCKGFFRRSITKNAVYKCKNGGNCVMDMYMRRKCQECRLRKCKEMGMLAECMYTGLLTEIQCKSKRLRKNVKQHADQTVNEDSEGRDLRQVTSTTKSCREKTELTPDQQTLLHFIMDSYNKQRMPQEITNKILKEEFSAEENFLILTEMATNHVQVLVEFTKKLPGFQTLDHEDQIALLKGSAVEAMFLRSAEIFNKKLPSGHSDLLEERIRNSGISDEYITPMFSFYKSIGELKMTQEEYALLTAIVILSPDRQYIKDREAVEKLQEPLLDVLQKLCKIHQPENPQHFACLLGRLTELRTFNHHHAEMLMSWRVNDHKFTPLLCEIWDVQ

Homo sapiens = species: Homo sapiens; test: Activation of human Farnesoid X receptor/Retinoic X receptor at 5 uM
[1] = Inhibition of human Farnesoid X receptor/Retinoid X receptor heterodimer; Antagonistic activity; type: functional

Compound | EC50 (Bile acid receptor) [nM] | Fold activation (Homo sapiens) | further results
CN(C)c1ccc(-c2ccc(CN(C(=O)C3CCCCC3)c3cccc(/C=C/C(=O)O)c3)cc2)cc1 | 255 |  | 
CC1(C)CCC(C)(C)c2cc(C(Cc3ccc(C(=O)O)cc3)[Si](C)(C)C)ccc21 (stereo unspecified) |  | 91 | 
O=C(O)/C=C/c1cccc(N(Cc2ccc(-c3ccc4c(c3)OCO4)cc2)C(=O)C2CCCCC2)c1 | 222 |  | 
O=C(O)/C=C/c1cccc(N(Cc2ccc(/C=C/c3ccccc3)cc2)C(=O)C2CCCCC2)c1 | 255 |  | 
CCCC/C(=C\c1ccc(C(=O)O)cc1)c1ccc2c(c1)C(C)(C)CCC2(C)C |  | 85 | 
CCCCCCOc1c(\C(C)=C/C=C/C(C)=C/C(=O)O)cc(C(C)C)cc1C(C)C |  |  | IC50 [1]: < 10 nM

From ChEMBL document CHEMBL1145168, “Farnesoid X receptor: from structure to potential clinical applications” (J Med Chem, 2005)
